Data taken from patent US6608178B1, “5-hydroxytryptophol (5-HTOL) derivatives, antibodies, immunoassays and detection of recent alcohol consumption” (Alco Dia A.B., priority 1996, dated 2003).

Test system: mouse monoclonal anti-5-HTOL antibody
Experiment: Cross reactivity in the competitive immunoassay (labelled conjugate IV vs. anti-5-HTOL antibody)
Assay type: binding
Settings: allowable maximal cross reactivity in urine for a 50 nM detection limit of T-5-G; the tested antibody complied with these criteria
Procedure: Crossreactivity for various substances was measured in the immunoassay method described below with dilutions (in the diluent) of the tested substance used in stead of urine or standard. The concentration range tested for each substance covered three magnitudes and was up to or above one magnitude the highest noted literature value.
Diluent was 0.05 M sodium phosphate buffer, pH 7.0, containing 0.01 M EDTA, 0.1% Tween® and 1% BSA. Decanting solution was Pharmacia decanting suspension without added antibody suspension (Pharmacia Diagnostics AB). μ-agarose particles carried covalently bound sheep-anti-mouse antibody.
Assay Procedure: Pipette to a test tube 50 μl urine or standard, 50 μl tracer solution, 50 μl antibody solution (one of the above-mentioned six selected clones, 5 μg/ml), mix on shaker ˜600 rpm for ˜1 min, allow to stand for 1.5 h at room temperature, 50 μl of the sheep anti-mouse micro-agarose suspension (˜100 mg/ml), mix as above and let stand for another 0.5 h, then add 2 ml decanting solution, centrifuge 10 min at 3000 rpm, with tubes in Pharmacia decanting racks, in the JR-3.2 Rack Rotor, in a Beckman J-6B centrifuge. Within 5 min after completed centrifugation decant the supernatant and let tube racks stand inverted on absorbtive tissue for 2 min. Finally the remaining radioactivity in the tubes is measured in a gamma counter. A standard curve is made with T-5-G in the diluent at 10, 100, 1000 and 10000 nmol/L.

| Structure (SMILES) | Acceptable Crossreactivity |
| --- | --- |
| O=C(O)Cc1c[nH]c2ccc(O)cc12 [5-HIAA, 5-hydroxyindole-3-acetic acid] | ≤ 0.07% |
| N[C@@H](Cc1c[nH]c2ccc(O)cc12)C(=O)O [5-hydroxytryptophan] | ≤ 0.1% |
| COc1ccc2[nH]cc(CCN)c2c1 [5-methoxytryptamine] | ≤ 5% |
| COc1ccc2[nH]cc(CCO)c2c1 [5-methoxytryptophol] | ≤ 5% |
| C[C@]12CC[C@@H]3c4ccc(O[C@@H]5O[C@H](C(=O)O)[C@@H](O)[C@H](O)[C@H]5O)cc4CC[C@H]3[C@@H]1CCC2=O [estrone-β-D-glucuronide] | ≤ 50% |
| O=Cc1c[nH]c2ccccc12 [indole-3-aldehyde] | ≤ 0.05% |
| O=C(O)Cc1c[nH]c2ccccc12 [indolyl acetic acid] | ≤ 0.07% |
| O=S(=O)(O)Oc1c[nH]c2ccccc12 [indoxyl sulphate] | ≤ 0.002% |
| O=C(O)[C@H]1O[C@@H](Oc2c[nH]c3ccccc23)[C@H](O)[C@@H](O)[C@@H]1O [indoxyl-β-D-glucuronide] | ≤ 0.002% |
| COc1ccc2[nH]cc(CCNC(C)=O)c2c1 [melatonin] | ≤ 50% |
| O=C(O)[C@H]1O[C@@H](Oc2ccc([N+](=O)[O-])cc2)[C@H](O)[C@@H](O)[C@@H]1O [p-nitrophenyl-β-D-glucuronide] | ≤ 0.002% |
| NCCc1c[nH]c2ccc(O)cc12 [serotonin, 5-hydroxytryptamine] | ≤ 7% |
| CC12CCC(=O)C=C1CCC1C2CCC2(C)C(OC3OC(C(=O)O)C(O)C(O)C3O)CCC12 [testosterone-β-D-glucuronide] | ≤ 50% |
| NCCc1c[nH]c2ccccc12 [tryptamine] | ≤ 6% |
| N[C@@H](Cc1c[nH]c2ccccc12)C(=O)O [tryptophan] | ≤ 0.6% |

Test system: not given
Experiment: not given
Settings: human urine; cited from earlier work

| Structure (SMILES) | Share of urinary 5-HTOL conjugated with glucuronic acid |
| --- | --- |
| O=C(O)[C@H]1O[C@@H](Oc2ccc3[nH]cc(CCO)c3c2)[C@H](O)[C@@H](O)[C@@H]1O [T-5-G, 3-(2-hydroxyethyl)indole-5-yl-O-β-D-glucopyranosiduronic acid] | 75-95% |
